Measurements reported in ChEMBL document CHEMBL1201862, “PubChem BioAssay data set” (2004).
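Each compound was tested at five concentrations against cells in 96-well plates for 48 hours. Abbreviation: GI50, concentration required for 50% inhibition of growth.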 Calls of active or inactive are those of the source. Rule as the data show it: active = GI50 up to about 1.1 µM and inactive = higher.

Key:
Assay in all cases: NCI anticancer screen, dose series, 48 h
A549 = tested on: A549
SNB-78 = tested on: SNB-78
ACHN = tested on: ACHN
HT-29 = tested on: HT-29
DMS-114 = tested on: DMS-114
M19-MEL = tested on: M19-MEL
SF-295 = tested on: SF-295
OVCAR-8 = tested on: OVCAR-8
NCI-H23 = tested on: NCI-H23
U-251 = tested on: U-251
NCI-H460 = tested on: NCI-H460
MOLT-4 = tested on: MOLT-4
SK-OV-3 = tested on: SK-OV-3
K562 = tested on: K562
HL-60 = tested on: HL-60
NCI-H226 = tested on: NCI-H226
RXF 393 = tested on: RXF 393
HOP-62 = tested on: HOP-62
HOP-92 = tested on: HOP-92
NCI-H522 = tested on: NCI-H522
IGROV-1 = tested on: IGROV-1
A498 = tested on: A498
OVCAR-5 = tested on: OVCAR-5
RXF 631 = tested on: RXF 631
EKVX = tested on: EKVX
HCT-116 = tested on: HCT-116
KM12 = tested on: KM12
SNB-19 = tested on: SNB-19
SR = tested on: SR
UO-31 = tested on: UO-31
UACC-257 = tested on: UACC-257
TK-10 = tested on: TK-10
CCRF-CEM = tested on: CCRF-CEM
UACC-62 = tested on: UACC-62
SK-MEL-28 = tested on: SK-MEL-28
M14 = tested on: M14
KM-20L2 = tested on: KM-20L2
SNB-75 = tested on: SNB-75
DLD-1 = tested on: DLD-1
OVCAR-4 = tested on: OVCAR-4
HOP-18 = tested on: HOP-18
SF-268 = tested on: SF-268
SF-539 = tested on: SF-539
Malme-3M = tested on: Malme-3M
SK-MEL-5 = tested on: SK-MEL-5
SK-MEL-2 = tested on: SK-MEL-2
HCC 2998 = tested on: HCC 2998
COLO 205 = tested on: COLO 205
LOX IMVI = tested on: LOX IMVI
SW-620 = tested on: SW-620
786-0 = tested on: 786-0
OVCAR-3 = tested on: OVCAR-3
DMS-273 = tested on: DMS-273
CAKI-1 = tested on: CAKI-1
LXFL 529 = tested on: LXFL 529
SN12C = tested on: SN12C
RPMI-8226 = tested on: RPMI-8226
HCT-15 = tested on: HCT-15

Compound: C[C@H]1C(=O)c2c(cc(O)c(C3OC(CO)C(O)C(O)C3O)c2O)OC1c1ccc(O)c(O)c1 (stereo partly drawn)
- GI50 (A549): > 100 µM (inactive)
- GI50 (SNB-78): > 100 µM (inactive)
- GI50 (ACHN): > 100 µM (inactive)
- GI50 (HT-29): > 100 µM (inactive)
- GI50 (DMS-114): > 100 µM (inactive)
- GI50 (M19-MEL): > 100 µM (inactive)
- GI50 (SF-295): > 100 µM (inactive)
- GI50 (OVCAR-8): > 100 µM (inactive)
- GI50 (NCI-H23): > 100 µM (inactive)
- GI50 (U-251): > 100 µM (inactive)
- GI50 (NCI-H460): > 100 µM (inactive)
- GI50 (MOLT-4): > 100 µM (inactive)
- GI50 (SK-OV-3): > 100 µM (inactive)
- GI50 (K562): > 10 µM (inactive)
- GI50 (HL-60): > 100 µM (inactive)
- GI50 (NCI-H226): 64.9 µM (inactive)
- GI50 (RXF 393): > 100 µM (inactive)
- GI50 (HOP-62): > 100 µM (inactive)
- GI50 (HOP-92): > 100 µM (inactive)
- GI50 (NCI-H522): > 100 µM (inactive)
- GI50 (IGROV-1): > 100 µM (inactive)
- GI50 (A498): > 100 µM (inactive)
- GI50 (OVCAR-5): > 100 µM (inactive)
- GI50 (RXF 631): > 100 µM (inactive)
- GI50 (EKVX): > 100 µM (inactive)
- GI50 (HCT-116): > 100 µM (inactive)
- GI50 (KM12): > 100 µM (inactive)
- GI50 (SNB-19): > 100 µM (inactive)
- GI50 (SR): > 100 µM (inactive)
- GI50 (UO-31): > 100 µM (inactive)
- GI50 (UACC-257): > 100 µM (inactive)
- GI50 (TK-10): > 100 µM (inactive)
- GI50 (CCRF-CEM): > 100 µM (inactive)
- GI50 (UACC-62): > 100 µM (inactive)
- GI50 (SK-MEL-28): > 100 µM (inactive)
- GI50 (M14): > 100 µM (inactive)

Compound: COc1cccc(NC(=O)CC(=O)N2NC(C)C(/N=N/c3cccc(C(=O)O)c3)C2=O)c1 (stereo not drawn)
- GI50 (A549): > 100 µM (inactive)
- GI50 (SNB-78): > 100 µM (inactive)
- GI50 (KM-20L2): > 100 µM (inactive)
- GI50 (SNB-75): > 100 µM (inactive)
- GI50 (ACHN): > 100 µM (inactive)
- GI50 (DLD-1): > 100 µM (inactive)
- GI50 (OVCAR-4): > 100 µM (inactive)
- GI50 (HOP-18): 17.9 µM (inactive)
- GI50 (SF-268): > 100 µM (inactive)
- GI50 (HT-29): > 100 µM (inactive)
- GI50 (SF-539): > 100 µM (inactive)
- GI50 (DMS-114): > 100 µM (inactive)
- GI50 (M19-MEL): > 100 µM (inactive)
- GI50 (SF-295): > 100 µM (inactive)
- GI50 (OVCAR-8): > 100 µM (inactive)
- GI50 (NCI-H23): > 100 µM (inactive)
- GI50 (U-251): > 100 µM (inactive)
- GI50 (NCI-H460): > 100 µM (inactive)
- GI50 (Malme-3M): > 100 µM (inactive)
- GI50 (MOLT-4): > 100 µM (inactive)
- GI50 (SK-MEL-5): > 100 µM (inactive)
- GI50 (SK-OV-3): > 100 µM (inactive)
- GI50 (SK-MEL-2): > 100 µM (inactive)
- GI50 (K562): > 100 µM (inactive)
- GI50 (HCC 2998): > 100 µM (inactive)
- GI50 (NCI-H226): > 100 µM (inactive)
- GI50 (COLO 205): > 100 µM (inactive)
- GI50 (HOP-62): > 100 µM (inactive)
- GI50 (LOX IMVI): > 100 µM (inactive)
- GI50 (HOP-92): > 100 µM (inactive)
- GI50 (NCI-H522): > 100 µM (inactive)
- GI50 (SW-620): > 100 µM (inactive)
- GI50 (IGROV-1): > 100 µM (inactive)
- GI50 (A498): > 100 µM (inactive)
- GI50 (786-0): > 100 µM (inactive)
- GI50 (OVCAR-5): > 100 µM (inactive)
- GI50 (RXF 631): > 100 µM (inactive)
- GI50 (OVCAR-3): > 100 µM (inactive)
- GI50 (DMS-273): > 100 µM (inactive)
- GI50 (EKVX): > 100 µM (inactive)
- GI50 (HCT-116): > 100 µM (inactive)
- GI50 (KM12): > 100 µM (inactive)
- GI50 (SNB-19): > 100 µM (inactive)
- GI50 (SR): > 100 µM (inactive)
- GI50 (UO-31): > 100 µM (inactive)
- GI50 (UACC-257): > 100 µM (inactive)
- GI50 (TK-10): > 100 µM (inactive)
- GI50 (CAKI-1): > 100 µM (inactive)
- GI50 (CCRF-CEM): > 100 µM (inactive)
- GI50 (UACC-62): > 100 µM (inactive)
- GI50 (SK-MEL-28): > 100 µM (inactive)
- GI50 (LXFL 529): > 100 µM (inactive)
- GI50 (SN12C): > 100 µM (inactive)
- GI50 (RPMI-8226): > 100 µM (inactive)
- GI50 (M14): > 100 µM (inactive)

Compound: CC1=CC2CC(C)=C(CC[C@]3(C)CC[C@H]([C@@H](C)C(=O)O)OO3)C(C)(C)C2CC1 (stereo partly drawn)
- GI50 (A549): 0.45 µM (active)
- GI50 (SNB-78): 1.51 µM (inactive)
- GI50 (KM-20L2): 1.29 µM (inactive)
- GI50 (SNB-75): 0.853 µM (active)
- GI50 (ACHN): 1.3 µM (inactive)
- GI50 (DLD-1): 0.201 µM (active)
- GI50 (OVCAR-4): 0.442 µM (active)
- GI50 (HOP-18): 0.158 µM (active)
- GI50 (SF-268): 1.62 µM (inactive)
- GI50 (HT-29): 0.182 µM (active)
- GI50 (SF-539): 1.26 µM (inactive)
- GI50 (DMS-114): 0.376 µM (active)
- GI50 (M19-MEL): 1.63 µM (inactive)
- GI50 (SF-295): 1.36 µM (inactive)
- GI50 (OVCAR-8): 0.603 µM (active)
- GI50 (NCI-H23): 0.9 µM (active)
- GI50 (U-251): 0.356 µM (active)
- GI50 (NCI-H460): 0.2 µM (active)
- GI50 (Malme-3M): 0.771 µM (active)
- GI50 (SK-MEL-5): 1.26 µM (inactive)
- GI50 (SK-OV-3): 2.2 µM (inactive)
- GI50 (SK-MEL-2): 1.6 µM (inactive)
- GI50 (K562): 0.208 µM (active)
- GI50 (HL-60): 0.0863 µM (active)
- GI50 (HCC 2998): 0.292 µM (active)
- GI50 (NCI-H226): 1.85 µM (inactive)
- GI50 (COLO 205): 0.403 µM (active)
- GI50 (RXF 393): 0.372 µM (active)
- GI50 (HOP-62): 1.75 µM (inactive)
- GI50 (LOX IMVI): 0.0792 µM (active)
- GI50 (HOP-92): 0.136 µM (active)
- GI50 (NCI-H522): 0.171 µM (active)
- GI50 (SW-620): 0.177 µM (active)
- GI50 (IGROV-1): 0.212 µM (active)
- GI50 (A498): 1.75 µM (inactive)
- GI50 (786-0): 1.45 µM (inactive)
- GI50 (OVCAR-5): 2.34 µM (inactive)
- GI50 (RXF 631): 1.48 µM (inactive)
- GI50 (OVCAR-3): 1.63 µM (inactive)
- GI50 (DMS-273): 0.528 µM (active)
- GI50 (EKVX): 1.91 µM (inactive)
- GI50 (HCT-116): 0.457 µM (active)
- GI50 (KM12): 0.128 µM (active)
- GI50 (SNB-19): 1.67 µM (inactive)
- GI50 (SR): 0.195 µM (active)
- GI50 (HCT-15): 0.675 µM
- GI50 (UO-31): 0.984 µM (active)
- GI50 (UACC-257): 1.53 µM (inactive)
- GI50 (TK-10): 1.76 µM (inactive)
- GI50 (CAKI-1): 1.17 µM (inactive)
- GI50 (CCRF-CEM): 0.182 µM (active)
- GI50 (UACC-62): 1.49 µM (inactive)
- GI50 (SK-MEL-28): 1.57 µM (inactive)
- GI50 (LXFL 529): 0.193 µM (active)
- GI50 (SN12C): 0.391 µM (active)
- GI50 (RPMI-8226): 0.304 µM (active)
- GI50 (M14): 1.31 µM (inactive)
